For series [1] the following is noted: Reference 13, cited from earlier work.
Series [2] is described as follows: Rat plasma pharmacokinetics of 2-ME2 after intravenous and oral dosing (cannulated rat model). To be noted: for Bioavailability: AUC through 480 minutes. It counts as in vivo, Sprague Dawley rats. On the procedure:
The main compound of the present invention (2ME2-PD) and the native compound (8R,9S,13S,14S,17S)-2-methoxy-13-methyl-7,8,9,11,12,13,14,15,16,17-decahydro-6H-cyclopenta[a]phenanthren-17-ol (2-ME2) were dissolved independently in 0.1 M Captisol® at concentrations between 10 mg/mL and 21 mg/mL. The solutions were sterile filtered through 0.2 micron filters prior to use.
Animal studies were approved and conducted in accordance with the guidelines of the Institutional Animal Care and Use Committee. A cannulated rat model was used to study the intravenous (iv) and oral absorption 2-ME2 and 2-ME2-PD.
Sprague Dawley rats (male, 250-300 gram, Charles River Laboratories) were implanted with carotid artery, and jugular and/or femoral vein catheters. These studies were automated with the animals connected to the Culex Automated Pharmacology System allowing for direct comparison of pharmacokinetic behavior between the orally and iv administered compounds in the same animal. Following surgery, the animals were connected to the Culex and allowed to recover and acclimate. Fasted animals were dosed intravenously and orally with solutions of 2-ME2-PD in 0.1 M Captisol® (CyDex Pharmaceuticals, Inc) and 2-ME2 parent in 0.2 M HP-13-CD (Sigma-Aldrich).
Oral doses were given via gavage to the animal under light anesthesia. Blood was sampled at times ranging from five to 1440 minutes into heparinized vials stored on the chilled fraction collector, and remained there until sampling was complete. Blood samples were processed to plasma via centrifugation and stored at −80° C. until analysis for 2-ME2-PD, 2-ME2 and associated metabolite concentration by liquid chromatography-mass spectrometry (LC-MS/MS). Bioanalytical methods for the 2-ME2-PD and 2-ME2 analysis were modified from those of Lakhani et. al. Quantitation was made relative to deuterated internal standards.
Pharmacokinetic analysis of the resulting plasma concentration time data was performed using PK Solution software (Summit PK). Results for the studies conducted are illustrated in FIG. 1 and Table II (below). For oral doses of 2-ME2, no compound was found in plasma at all time points studied (<2 ng/mL LOQ). All samples from times greater than 480 minutes had 2-ME2 levels that were below the limit of quantitation.

The conditions of series [3]: oxidation of 2-ME2 at the 17 position; References 3, 13 and 19; cited from earlier work.
In the next series the test system is OE33 xenografts. The series can be described thus: Growth of Barrett's esophageal adenocarcinoma (BEAC) OE33 xenografts in nude mice. To be noted: 75 mg/kg/day orogastric feeding, 8 days, versus vehicle control, listed as pro-2-ME2. Type of series: in vivo. As for the experimental part:
We injected ˜2.0×10^6 OE33 cells subcutaneously into the left hind leg flank of each nude mice […] for the development of tumor. The mice were divided into two groups (two mice per group) with a control group and Pro-2-ME2 treatment group. After forming palpable tumors, the nude mice bearing xenografts of OE33 cells were given daily pro-2-ME2 doses (75 mg/kg/day) by orogastric feeding or vehicle (control). Pro-2-ME2 was dissolved in 500 μl of saline water. We used 500 μl of saline water as a vehicle control. Tumor growth was monitored for 8 days by measuring two perpendicular diameters twice weekly. Tumor volume was calculated according to the formula V=a×b^2/2, where a and b are the largest and smallest diameters, respectively.

The mark [4] stands for this setting: plasma 2-ME2, 2-ME2 intravenous 5.21 mg/kg.
The mark [5] stands for this setting: plasma 2-ME2, 2-ME2-PD intravenous 10 mg/kg.
Setting [6] is: plasma 2-ME2, 2-ME2-PD oral 20 mg/kg, average of two animals.
[7] abbreviates: plasma 2-ME2, 2-ME2-PD oral 31.5 mg/kg.

Broadly, the Cmax is the peak of the concentration-time curve.

`COc1cc2c(cc1O)CC[C@@H]1[C@@H]2CC[C@]2(C)[C@@H](O)CC[C@@H]12` [2-ME2]: the “orally administered dose of 2-ME2 recovered in the urine” value in series [1] is recorded as around 1%. For the same molecule, in series [1] (metabolites, animal and human studies), the “fraction of orally administered 2-ME2 dose recovered in the urine as metabolites” value is on record as “less than 1%”. In series [1] (unchanged 2-ME2, animal and human studies), the “fraction of orally administered 2-ME2 dose recovered in the urine” value is listed as “less than 0.1%”. In addition, the Bioavailability in series [2] (2-ME2 intravenous 5.21 mg/kg (reference)) worked out at 100%. Moreover, the “2-ME2 in plasma at all time points (LOQ)” value in series [2] (oral doses of 2-ME2 (5.21 mg/kg), no compound found) is below 2 ng/mL. In series [2] (setting [4]), this molecule showed an AUCt-480 of 19253 ng·min/mL, a peak concentration (Cmax) of 1221 ng/mL and a T1/2 of 0.983 h.

On to `COc1cc2c(cc1O)CC[C@@H]1[C@@H]2CC[C@]2(C)C(=O)CC[C@@H]12` [2-methoxyestrone], for which the “loss in activity in vitro versus 2-ME2” value in series [3] was 10-to 100 fold.

Consider `COc1cc2c(cc1OCOP(=O)([O-])[O-])CC[C@@H]1[C@@H]2CC[C@]2(C)[C@@H](OC(C)=O)CC[C@@H]12.[Na+].[Na+]` [2-ME2-PD, disodium(((8R,9S,13S,14S,17S)-17-acetoxy-2-methoxy-13-methyl-7,8,9,11,12,13,14,15,16,17-decahydro-6H-cyclopenta[a]phenanthren-3-yl)oxy)methyl phosphate], for which the Bioavailability was found to be 21.8% in series [2] (2-ME2-PD intravenous 10 mg/kg, relative to 2ME2 iv and corrected for dose); 4.4% in series [2] (2-ME2-PD oral 20 mg/kg, relative to 2ME2 iv and corrected for dose, average of two animals); 4.9% in series [2] (2-ME2-PD oral 31.5 mg/kg, relative to 2ME2 iv and corrected for dose). Besides, in series [2] (oral 2-ME2 prodrug, 0-480 minutes), the “absolute bioavailabilities from oral administration” value is 4-5%. The figures for the Cmax in series [2] (setting [5]), in series [2] (setting [6]) and in series [2] (setting [7]) were 121 ng/mL, 8.4 ng/mL and 9.9 ng/mL, respectively. For the same molecule, the T1/2 was 4.37 h in series [2] (setting [5]), 13.4 h in series [2] (setting [6]) and 6.85 h in series [2] (setting [7]). Further, the AUCt-480 in series [2] (plasma 2-ME2, 2-ME2-PD intravenous 10 mg/kg (corrected dose 6.06 mg/kg)) is 4967 ng·min/mL; in series [2] (plasma 2-ME2, 2-ME2-PD oral 20 mg/kg (corrected dose 12.13 mg/kg), average of two animals), 2006 ng·min/mL; in series [2] (plasma 2-ME2, 2-ME2-PD oral 31.5 mg/kg (corrected dose 19.11 mg/kg)), 3516 ng·min/mL. In the series on OE33 xenografts, the “growth of OE33 tumor implants (tumor volume)” value is recorded as “significantly inhibited”.

(Values after patent US20120225849A1, “2-Methoxyestradiol (2-ME2) Prodrug with Enhanced Bioavailability for Prophylaxis or Treatment of Cancerous or Non-Cancerous Condition” (The University of Kansas, priority 2011, published 2012).)
